{"source": "patent US20080234351A1", "about": "“Combination Methods for Preserving Visual Acuity” (priority 2005, published 2008)", "system": "patients with type 1 or type 2 diabetes mellitus and moderately severe to very severe NPDR", "test": "Clinical Study MBCM(b): Phase 3, randomized, double-masked, placebo-controlled study; frequency of sustained moderate visual loss (SMVL)", "format": "in vivo, humans", "conditions": "32 mg/d orally, SMVL = ≧15 letters loss in best-corrected ETDRS visual acuity for 6-month period (30 to 36 months)", "description": "MBCM(b) is a Phase 3, multicenter, parallel, randomized, double-masked, placebo-controlled study. Language from the MBCM(b) protocol is included below.\nPatients with type 1 or type 2 diabetes mellitus and an Early Treatment Diabetic Retinopathy Study (ETDRS) retinopathy level ≧47A and ≦53E in at least one eye will be eligible to participate in the study. Visual acuity (best-corrected) will be assessed using the ETDRS visual acuity protocol. Retinopathy will be assessed using ETDRS 7 standard field 30 degree color stereoscopic fundus photography. The photographs will be independently assessed by the University of Wisconsin Fundus Photograph Reading Center.\nSeventy sites have enrolled patients over a 15-month period. Of the 685 patients enrolled, it is expected that approximately 580 patients will complete the study. […]\nPatients may be included in the study only if they meet all of the following general criteria and have at least one eye that meets all of the eye-specific criteria: • [1] […] ETDRS retinopathy level ≧47A and ≦53E without previous panretinal photocoagulation as determined using ETDRS 7 standard field 30-degree color stereoscopic fundus photography. • [3] […] Best-corrected visual acuity score of 45 or more letters as measured using the ETDRS visual acuity protocol (ETDRS Study report number 1, Arch. Opthalmol., 103:1796-1806, 1985) in an eye that has level ≧47A and ≦53E retinopathy. […]"}
{"smiles": "CN(C)C[C@@H]1CCn2cc(c3ccccc32)C2=C(C(=O)NC2=O)c2cn(c3ccccc23)CCO1", "note": "[RBX, (S)-9-((dimethylamino)methyl)-6,7,10,11-tetrahydro-9H,18H-5,21:12,17-dimethenodibenzo(e,k)pyrrolo(3,4-h)(1,4,13)oxadiazacyclohexadecine-18,20(19H)-dione]", "values": [{"measurement": "% Of Patients with SMVL, Focal PC", "setting": "patients with focal photocoagulation", "result": 8.6, "unit": "%"}, {"measurement": "% Of Patients with SMVL, No Focal PC", "setting": "patients without focal photocoagulation", "result": 2.7, "unit": "%"}]}
